Results reported in ChEMBL document CHEMBL5365393, “Comprehensive coverage on anti-mycobacterial endeavour reported during 2022” (Eur J Med Chem, 2023).
In brackets after ≈: the same amount, converted by molar mass.

Experiments:
Format in all cases: functional
[1] = system: Mycobacterium tuberculosis; experiment: Antibacterial activity against extensively drug-resistant Mycobacterium tuberculosis clinical isolate H37Rv assessed as inhibition of bacterial growth
[2] = system: Mycobacterium tuberculosis; experiment: Antibacterial activity against multidrug-resistant Mycobacterium tuberculosis clinical isolate H37Rv assessed as inhibition of bacterial growth
[3] = system: Mycobacterium tuberculosis; experiment: Antibacterial activity against isoniazid-resistant Mycobacterium tuberculosis H37Rv assessed as inhibition of bacterial growth
[4] = system: Mycobacterium tuberculosis; experiment: Antibacterial activity against rifampicin-resistant Mycobacterium tuberculosis H37Rv assessed as inhibition of bacterial growth
[5] = system: Mycobacterium tuberculosis; experiment: Antibacterial activity against ethambutol-resistant Mycobacterium tuberculosis H37Rv assessed as inhibition of bacterial growth
[6] = system: Mycobacterium tuberculosis; experiment: Antibacterial activity against streptomycin-resistant Mycobacterium tuberculosis H37Rv assessed as inhibition of bacterial growth
[7] = system: Mycobacterium tuberculosis; experiment: Antibacterial activity against multidrug-resistant Mycobacterium tuberculosis clinical isolate CDCT-16 assessed as inhibition of bacterial growth
[8] = system: Mycobacterium tuberculosis; experiment: Antibacterial activity against multidrug-resistant Mycobacterium tuberculosis clinical isolate CDCT-27 assessed as inhibition of bacterial growth
[9] = system: Mycobacterium tuberculosis; experiment: Antibacterial activity against isoniazid and rifampicin-resistant Mycobacterium tuberculosis T113/09 assessed as inhibition of bacterial growth
[10] = system: Mycobacterium tuberculosis; experiment: Antibacterial activity against extensively drug-resistant Mycobacterium tuberculosis assessed as inhibition of bacterial growth by microplate alamar blue assay
[11] = system: Mycobacterium tuberculosis; experiment: Antibacterial activity against multidrug-resistant Mycobacterium tuberculosis assessed as inhibition of bacterial growth by microplate alamar blue assay
[12] = system: Mycobacterium tuberculosis; experiment: Antibacterial activity against extensively drug-resistant Mycobacterium tuberculosis assessed as inhibition of bacterial growth
[13] = system: Mycobacterium tuberculosis; experiment: Antibacterial activity against multidrug-resistant Mycobacterium tuberculosis assessed as inhibition of bacterial growth

**Q.** Which MIC [1] does the source give for `CC(C)/N=c1\cc2n(-c3ccccc3)c3ccccc3nc-2cc1Nc1ccc(N2CCN(C)CC2)c(F)c1` here?
**A.** 0.08 µg/mL (≈ 0.154 µM)

**Q.** What about the MIC [2] of the same molecule?
**A.** 0.08 µg/mL (≈ 0.154 µM)

**Q.** What does the source list for `COC(=O)c1cc(-c2ccc(OC)c(NC(=O)c3cc(-c4cccc(Cl)c4)nc4ccccc34)c2)on1`?
**A.** MIC [3]: 0.5 µg/mL (≈ 0.973 µM); MIC [4]: 0.25 µg/mL (≈ 0.486 µM); MIC [5]: 0.25 µg/mL (≈ 0.486 µM); MIC [6]: 0.25 µg/mL (≈ 0.486 µM)

**Q.** What does the source list for `Cc1nc2cc(C(F)(F)F)ccc2n1-c1ncc(C(F)(F)F)s1`?
**A.** MIC [7]: 4.16 µM (≈ 1.46 µg/mL); MIC [8]: 3.68 µM (≈ 1.29 µg/mL)

**Q.** For `CCCCCCc1ccc(-c2cn(CC(=O)Cn3ccnc3[N+](=O)[O-])nn2)cc1`, which MIC [9] is on record?
**A.** 16.3 µM (≈ 6.46 µg/mL)

**Q.** Which results are given for `O=C(N/N=C1\C(=O)N(Cc2ccccc2)c2ccccc21)c1cnc2cc(Cl)ccc2c1O`?
**A.** MIC [10]: 1.95 µg/mL (≈ 4.27 µM); MIC [11]: 0.24 µg/mL (≈ 0.525 µM)

**Q.** With `COc1ccc(-c2nn(-c3ccc([N+](=O)[O-])cc3[N+](=O)[O-])c(N)c2C#N)cc1Oc1cccc(Br)c1C#N` as the molecule, how does the MIC [12] read?
**A.** 3.9 µg/mL (≈ 6.77 µM)

**Q.** And the MIC [13]?
**A.** 1.95 µg/mL (≈ 3.38 µM)
